Results from PMC8000448, “Inhibitory Effects of Schisandra Lignans on Cytochrome P450s and Uridine 5′-Diphospho-Glucuronosyl Transferases in Human Liver Microsomes” (Pharmaceutics, 2021).
Read-outs that look alike come from different tables or passages of the source.

Key:
Type in all cases: in vitro ADME
[1] = target: T1, UGT1A4 (Homo sapiens, UniProt P22310); assay: UGT1A4 inhibition in HLMs (trifluoperazine); settings: average in triplicate, read-out: IC50, UGT 1A4
T1 construct: pooled HLMs (0.25 mg/mL); tissue XenoTech H2630; host or cells: pooled human liver microsomes, mixed gender
T1 sequence (P22310 29-534): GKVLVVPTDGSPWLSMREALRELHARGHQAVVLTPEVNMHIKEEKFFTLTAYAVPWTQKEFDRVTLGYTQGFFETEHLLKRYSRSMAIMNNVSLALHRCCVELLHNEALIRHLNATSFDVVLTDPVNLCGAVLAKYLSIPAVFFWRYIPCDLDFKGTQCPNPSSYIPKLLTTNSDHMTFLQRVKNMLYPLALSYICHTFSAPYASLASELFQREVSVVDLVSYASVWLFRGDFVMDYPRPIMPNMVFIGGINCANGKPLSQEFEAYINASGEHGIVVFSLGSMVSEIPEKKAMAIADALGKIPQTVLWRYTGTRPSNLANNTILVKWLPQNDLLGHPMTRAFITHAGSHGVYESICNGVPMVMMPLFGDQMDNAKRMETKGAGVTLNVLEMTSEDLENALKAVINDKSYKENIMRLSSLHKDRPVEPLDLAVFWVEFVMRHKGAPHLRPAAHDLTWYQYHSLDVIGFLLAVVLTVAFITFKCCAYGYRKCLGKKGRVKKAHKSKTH
Procedure: (§1) The inhibitory potential of six lignans on six UGT activities was evaluated using the previously developed cocktail method with slight modifications. […] These substrates are known to be selective for each UGT isoforms.

[2] = target: T2, CYP2E1 (Homo sapiens, UniProt P05181); assay: CYP2E1 inhibition in HLMs (chlorzoxazone)
T2 construct: pooled HLMs (0.25 mg/mL); tissue XenoTech H2630; host or cells: pooled human liver microsomes, mixed gender
T2 sequence (P05181 whole entry): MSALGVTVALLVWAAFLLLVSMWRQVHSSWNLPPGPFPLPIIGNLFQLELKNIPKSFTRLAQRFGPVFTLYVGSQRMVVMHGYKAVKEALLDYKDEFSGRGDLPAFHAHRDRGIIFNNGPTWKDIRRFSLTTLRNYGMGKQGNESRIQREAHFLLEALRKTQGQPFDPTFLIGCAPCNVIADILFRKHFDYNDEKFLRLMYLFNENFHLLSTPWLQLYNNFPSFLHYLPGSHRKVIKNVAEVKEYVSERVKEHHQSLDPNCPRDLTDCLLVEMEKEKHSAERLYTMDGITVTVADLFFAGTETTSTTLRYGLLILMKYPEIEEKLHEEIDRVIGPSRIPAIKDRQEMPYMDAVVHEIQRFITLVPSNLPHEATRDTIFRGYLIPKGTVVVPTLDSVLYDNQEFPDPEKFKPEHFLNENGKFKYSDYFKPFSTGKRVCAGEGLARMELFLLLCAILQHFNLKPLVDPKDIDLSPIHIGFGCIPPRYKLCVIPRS
Procedure: Lignans were first dissolved in methanol. […] All microsomal incubations were performed in triplicate.

[3] = target: T3, UGT1A1 (Homo sapiens, UniProt P22309); assay: UGT1A1 inhibition in HLMs (SN-38); settings: average in triplicate, read-out: IC50, UGT 1A1
T3 construct: pooled HLMs (0.25 mg/mL); tissue XenoTech H2630; host or cells: pooled human liver microsomes, mixed gender
T3 sequence (P22309 26-533): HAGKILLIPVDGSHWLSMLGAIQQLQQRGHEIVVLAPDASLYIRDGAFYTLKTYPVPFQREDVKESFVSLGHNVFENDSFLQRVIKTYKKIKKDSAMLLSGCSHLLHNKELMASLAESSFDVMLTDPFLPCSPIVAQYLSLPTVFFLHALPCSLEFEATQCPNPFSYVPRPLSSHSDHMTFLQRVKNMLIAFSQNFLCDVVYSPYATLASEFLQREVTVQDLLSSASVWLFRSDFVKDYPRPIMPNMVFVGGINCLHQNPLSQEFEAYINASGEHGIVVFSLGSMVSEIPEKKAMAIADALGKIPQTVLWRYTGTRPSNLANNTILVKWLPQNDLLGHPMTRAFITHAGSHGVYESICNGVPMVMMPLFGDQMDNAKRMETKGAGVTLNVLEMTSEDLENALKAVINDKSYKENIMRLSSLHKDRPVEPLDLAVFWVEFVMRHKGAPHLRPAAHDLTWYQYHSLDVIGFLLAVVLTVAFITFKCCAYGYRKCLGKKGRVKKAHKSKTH
Procedure: as §1

[4] = target: T4, UGT1A6 (Homo sapiens, UniProt P19224); assay: UGT1A6 inhibition in HLMs (N-acetylserotonin); settings: average in triplicate, read-out: IC50, UGT 1A6
T4 construct: pooled HLMs (0.25 mg/mL); tissue XenoTech H2630; host or cells: pooled human liver microsomes, mixed gender
T4 sequence (P19224 27-532): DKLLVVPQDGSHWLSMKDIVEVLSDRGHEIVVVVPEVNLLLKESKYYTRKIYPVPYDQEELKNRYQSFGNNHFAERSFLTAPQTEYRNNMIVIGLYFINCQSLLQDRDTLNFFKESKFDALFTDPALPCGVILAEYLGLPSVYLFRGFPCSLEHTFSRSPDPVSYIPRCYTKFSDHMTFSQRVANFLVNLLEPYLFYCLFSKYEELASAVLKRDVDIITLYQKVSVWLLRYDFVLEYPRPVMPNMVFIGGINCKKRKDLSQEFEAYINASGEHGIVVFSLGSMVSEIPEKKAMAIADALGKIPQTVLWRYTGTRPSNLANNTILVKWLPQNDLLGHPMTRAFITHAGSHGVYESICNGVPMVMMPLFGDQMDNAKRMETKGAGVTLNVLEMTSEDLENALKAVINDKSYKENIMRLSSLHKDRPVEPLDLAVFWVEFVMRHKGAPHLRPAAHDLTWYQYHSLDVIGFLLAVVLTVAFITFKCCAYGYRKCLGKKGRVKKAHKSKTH
Procedure: as §1

[5] = target: T5, UGT1A3 (Homo sapiens, UniProt P35503); assay: UGT1A3 inhibition in HLMs (chenodeoxycholic acid); settings: average in triplicate, read-out: IC50, UGT 1A3
T5 construct: pooled HLMs (0.25 mg/mL); tissue XenoTech H2630; host or cells: pooled human liver microsomes, mixed gender
T5 sequence (P35503 29-534): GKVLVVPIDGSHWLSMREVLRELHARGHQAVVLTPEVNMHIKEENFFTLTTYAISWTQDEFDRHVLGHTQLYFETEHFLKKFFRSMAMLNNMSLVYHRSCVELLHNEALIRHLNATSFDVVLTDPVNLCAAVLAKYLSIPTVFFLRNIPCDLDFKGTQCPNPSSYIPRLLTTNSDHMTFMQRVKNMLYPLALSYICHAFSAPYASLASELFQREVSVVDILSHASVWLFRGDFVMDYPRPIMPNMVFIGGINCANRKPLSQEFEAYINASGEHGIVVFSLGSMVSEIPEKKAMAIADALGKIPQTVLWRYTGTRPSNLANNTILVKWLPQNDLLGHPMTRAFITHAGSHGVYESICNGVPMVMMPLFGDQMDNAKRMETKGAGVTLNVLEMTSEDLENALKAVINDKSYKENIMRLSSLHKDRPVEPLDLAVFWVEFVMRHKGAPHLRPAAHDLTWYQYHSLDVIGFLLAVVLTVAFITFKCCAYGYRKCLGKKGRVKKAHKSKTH
Procedure: as §1

[6] = target: T6, UGT1A9 (Homo sapiens, UniProt O60656); assay: UGT1A9 inhibition in HLMs (mycophenolic acid); settings: average in triplicate, read-out: IC50, UGT 1A9
T6 construct: pooled HLMs (0.25 mg/mL); tissue XenoTech H2630; host or cells: pooled human liver microsomes, mixed gender
T6 sequence (O60656 26-530): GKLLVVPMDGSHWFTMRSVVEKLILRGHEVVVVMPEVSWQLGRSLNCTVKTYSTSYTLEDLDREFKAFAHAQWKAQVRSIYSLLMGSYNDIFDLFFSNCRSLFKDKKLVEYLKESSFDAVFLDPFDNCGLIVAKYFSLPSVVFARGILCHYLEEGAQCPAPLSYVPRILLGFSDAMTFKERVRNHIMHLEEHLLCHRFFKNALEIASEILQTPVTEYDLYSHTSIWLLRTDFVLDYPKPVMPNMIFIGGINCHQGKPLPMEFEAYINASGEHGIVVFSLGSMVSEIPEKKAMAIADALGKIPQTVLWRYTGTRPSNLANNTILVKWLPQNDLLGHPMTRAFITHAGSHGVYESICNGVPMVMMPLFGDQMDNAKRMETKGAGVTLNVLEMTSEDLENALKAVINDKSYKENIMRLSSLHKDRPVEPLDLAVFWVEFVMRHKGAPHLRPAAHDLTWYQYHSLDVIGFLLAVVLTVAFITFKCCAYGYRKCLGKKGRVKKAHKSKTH
Procedure: as §1

[7] = 30 min pre-incubation with NADPH generating system, read-out: IC50 TDI, CYP2E1
[8] = reversible inhibition, read-out: IC50 RI, CYP2E1

For COc1cc2c(c(OC)c1OC)-c1c(cc3c(c1OC)OCO3)C[C@H](C)[C@](C)(O)[C@H]2OC(=O)c1ccccc1 [Gomisin C, gomisin C], the IC50 [1] was greater than 50 µM, the IC50 [2, 7] was 24.4 µM and the IC50 [2, 8] was greater than 50 µM. The IC50 [3] was 24 µM, the IC50 [4] was greater than 50 µM and the IC50 [5] was 15 µM. For the same molecule, the IC50 [6] was greater than 50 µM.
With COc1cc2c(c(OC)c1OC)-c1c(cc(OC)c(OC)c1OC)C[C@](C)(O)[C@@H](C)C2 [Schisandrin, schisandrin] the IC50 [1] was greater than 50 µM, the IC50 [2, 7] was 36 µM and the IC50 [2, 8] was 4.2 µM. For the same molecule, the IC50 [3] was greater than 50 µM, the IC50 [4] was greater than 50 µM and the IC50 [5] was greater than 50 µM. It also gave an IC50 [6] greater than 50 µM.
COc1cc2c(c(OC)c1OC)-c1c(cc3c(c1OC)OCO3)C[C@H](C)[C@H](C)C2 [Gomisin N, gomisin N] was tested, and the IC50 [1] was greater than 50 µM, the IC50 [2, 7] was 23.6 µM and the IC50 shift at 10 min ([2]; human, pooled human liver microsomes, pH 7.4, probe chlorzoxazone (cocktail set B), RI/TDI fold shift) was greater than 2.1. It also gave an IC50 [2, 8] greater than 50 µM, an IC50 [3] greater than 50 µM and an IC50 [4] greater than 50 µM. For the same molecule, the IC50 [5] was 26.9 µM and the IC50 [6] was greater than 50 µM.
In the case of COc1c2c(cc3c1-c1c(cc4c(c1OC)OCO4)C[C@H](C)[C@H](C)C3)OCO2 [Wuweizisu C, wuweizisu C], the IC50 [1] is reported as greater than 50 µM, the IC50 [2, 7] is reported as 25.2 µM and the IC50 [2, 8] is reported as greater than 50 µM. For the same molecule, the IC50 [3] was greater than 50 µM, the IC50 [4] was greater than 50 µM and the IC50 [5] was greater than 50 µM. It also gave an IC50 [6] greater than 50 µM.
